Patent EP0590998A1, “1-Styryl-3-t-butyl-1,3-propanedione derivative and external preparation for skin using the same” (SHISEIDO COMPANY LIMITED, priority 1992, dated 1994)

Tests used:
[1] = Solubility of the 10% compounds in silicone base and squalane at room temperature; format: physicochemical; parameters: key: The compounds which can completely be dissolved in the solvents are indicated as ○; details: room temperature (25°C); for SOLUBILITY SILICONE KF56(10%): 10% compound in SILICONE KF56 (10cs); for SOLUBILITY SQUALANE(10%): 10% compound in squalane
Text: Solubilities of the following compounds 1 to 5 as examples of the 1-styryl-3-t-butyl-1,3-propanedione derivative and 2-hydroxy-4-methoxybenzophenone as a comparison are examined using the SILICONE KF56 (10cs; SHINETHU KACAKU INC.) as silicone base and squalane. Compound 1 : 1-styryl-3-t-butyl 1,3-propanedione Compound 2 : 1-p-methoxystyryl-3-t-butyl 1,3-propanedione Compound 3 : 1-p-(2-ethylhexyloxy)styryl-3-t-butyl 1,3-propanedione Compound 4 : 1-p-ethylstyryl-3-t-butyl1,3-propanedione compound 5 : 1-m-methylstyryl-3-t-butyl1,3-propanedione
The compounds which can completely be dissolved in the solvents are indicated as ○.

[2] = Ultraviolet ray absorption, spectrophotometer, 10ppm in ethanol; format: physicochemical; parameters: key: absorbance of 10 ppm ethanol solution, 10 mm quartz cell; details: 10ppm in ethanol (99.5%), quartz cell 10mm×10mm
Procedure: Ultraviolet ray absorptivities of the compound 1,3,5 and comparison (2-hydroxy-4-methoxybenzophenone; UV-A absorbent) were measured according to the following method.
The compound 1,3,5 and the comparison compound were dissolved in ethanol (99.5%) so as to the concentration being 10ppm, and absorption were measured by using quartz cell (10mm×10mm) and the spectrophotometer UVIDEC-610 (JASCO CORPORATION).

SMILES: COc1ccc(C(=O)c2ccccc2)c(O)c1 [COMPARISON 1, 2-hydroxy-4-methoxybenzophenone, reference compound]
- SOLUBILITY SILICONE KF56(10%) [1]: DEPOSITION
- SOLUBILITY SQUALANE(10%) [1]: DEPOSITION

SMILES: CC(C)(C)C(=O)CC(=O)C=Cc1ccccc1 [Compound 1, 1-styryl-3-t-butyl 1,3-propanedione]
- SOLUBILITY SILICONE KF56(10%) [1]: ○
- SOLUBILITY SQUALANE(10%) [1]: ○
- absorption ([2]; WAVELENGTH 300): 0.60
- absorption ([2]; WAVELENGTH 310): 0.82
- absorption ([2]; WAVELENGTH 320): 1.08
- absorption ([2]; WAVELENGTH 330): 1.33
- absorption ([2]; WAVELENGTH 340): 1.40
- absorption ([2]; WAVELENGTH 350): 1.24
- absorption ([2]; WAVELENGTH 360): 0.96
- absorption ([2]; WAVELENGTH 370): 0.50
- absorption ([2]; WAVELENGTH 380): 0.26

SMILES: COc1ccc(C=CC(=O)CC(=O)C(C)(C)C)cc1 [Compound 2, 1-p-methoxystyryl-3-t-butyl 1,3-propanedione]
- SOLUBILITY SILICONE KF56(10%) [1]: ○
- SOLUBILITY SQUALANE(10%) [1]: ○

SMILES: CCCCC(CC)COc1ccc(C=CC(=O)CC(=O)C(C)(C)C)cc1 (stereo not drawn) [Compound 3, 1-p-(2-ethylhexyloxy)styryl-3-t-butyl 1,3-propanedione]
- SOLUBILITY SILICONE KF56(10%) [1]: ○
- SOLUBILITY SQUALANE(10%) [1]: ○
- absorption ([2]; WAVELENGTH 300): 0.20
- absorption ([2]; WAVELENGTH 310): 0.28
- absorption ([2]; WAVELENGTH 320): 0.40
- absorption ([2]; WAVELENGTH 330): 0.56
- absorption ([2]; WAVELENGTH 340): 0.76
- absorption ([2]; WAVELENGTH 350): 0.92
- absorption ([2]; WAVELENGTH 360): 0.97
- absorption ([2]; WAVELENGTH 370): 0.89
- absorption ([2]; WAVELENGTH 380): 0.65

SMILES: CCc1ccc(C=CC(=O)CC(=O)C(C)(C)C)cc1 [Compound 4, 1-p-ethylstyryl-3-t-butyl1,3-propanedione]
- SOLUBILITY SILICONE KF56(10%) [1]: ○
- SOLUBILITY SQUALANE(10%) [1]: ○

SMILES: Cc1cccc(C=CC(=O)CC(=O)C(C)(C)C)c1 [Compound 5, 1-m-methylstyryl-3-t-butyl1,3-propanedione]
- SOLUBILITY SILICONE KF56(10%) [1]: ○
- SOLUBILITY SQUALANE(10%) [1]: ○
- absorption ([2]; WAVELENGTH 300): 0.50
- absorption ([2]; WAVELENGTH 310): 0.72
- absorption ([2]; WAVELENGTH 320): 1.00
- absorption ([2]; WAVELENGTH 330): 1.26
- absorption ([2]; WAVELENGTH 340): 1.36
- absorption ([2]; WAVELENGTH 350): 1.24
- absorption ([2]; WAVELENGTH 360): 0.98
- absorption ([2]; WAVELENGTH 370): 0.54
- absorption ([2]; WAVELENGTH 380): 0.32
